Reference: patent US20170314033A1, “HERBICIDE-RESISTANT TARAXACUM KOK-SAGHYZ AND TARAXACUM BREVICORNICULATUM” (Ohio State Innovation Foundation, priority 2016, published 2017)

How the values were obtained:
[1] = system: transgenic herbicide-resistant rubber-producing dandelions expressing the bar gene; assay: glufosinate treatment of mature transgenic (bar gene) plants; assay type: in vivo, Taraxacum kok-saghyz and Taracum brevicorniculatum; details: for survival rate: formulated under the brand BASTA, mature transgenic plants
Description: Applicants show the successful generation of rubber-producing dandelions species, which display resistance to broad leaf herbicide glufosinate. Using similar methods as described in Example 1, transgenic plants were generated using Agrobacterium tumafaciens-mediated transformation of leaf discs or root fragments, followed by regeneration of transgenic plants, which were then acclimated and transferred to pots within greenhouses. The bar gene, was expressed singly or in combination with other genes of interest in two rubber-producing dandelion species, Taraxacum kok-saghyz and Taracum brevicorniculatum. Table 1 describes the list of gene constructs used for the generation of transgenic herbicide-resistant dandelions.
Confirmation of a transgenic event was validated by PCR and resistance confirmed through treatment of mature transgenic plants with varying doses of glufosinate (e.g., 25 mg/L, 50 mg/L, 100 mg/L, 200 mg/L, etc.) formulated under the brand BASTA®. Treatment of plants with glufosinate at 25 mg/L yielded a 100% survival rate, 50 mg/L yielded a 50% survival rate, 150 mg/L yielded a 100% survival rate, and 200 mg/L yielded a 50% survival rate.

[2] = system: wild-type plants (dandelions); assay: glufosinate exposure of wild-type dandelions; assay type: in vivo; details: FIG. 11
Description: FIG. 11: Comparison of wild-type dandelions and exemplary herbicide-resistant rubber-producing dandelions after exposure to herbicide.

[3] = system: non-transgenic TB; assay: kanamycin selection, elimination of non-transgenic TB; assay type: in vivo, T. brevicorniculatum; details: ½ MS medium, data not shown
Experimental: (§1) Roots then were blotted dry on filter paper and transferred to co-culture medium (solid 1⁄2 MS medium with 200 μm acetosyringone). After 3 days of co-culture with agrobacteria, root fragments were washed sequentially with water and liquid 1⁄2 MS medium with 400 mg L^-1 Timentin, and then transferred to solid 1⁄2 MS medium with 400 mg L^-1 Timentin. […] After 3 weeks further selection, transgene events were validated in selected plants. Root fragments of TK and TB were also inoculated with A. rhizogenes […] wild type using the same method. After recovery, root fragments were transferred to 1⁄2 MS medium with 400 mg L^-1 Timentin for regeneration. Approximately 30 root fragments were used for each replicate and three replicates were used for each treatment. […] Transgene presence was validated by PCR analysis (FIGS. 5A and B) and transgene expression at the transcription level was confirmed by RT-PCR (FIGS. 6A and B) using leaf tissue.

[4] = system: non-transgenic TK; assay: kanamycin selection, elimination of non-transgenic TK; assay type: in vivo, Taraxacum kok-saghyz; details: ½ MS medium, data not shown
Experimental: as §1

Compound | herbicide tolerance after exposure to glufosinate ([1]; exemplary dandelions of the invention, FIG. 11) | injury as a result of exposure to glufosinate ([1]; exemplary plant of the invention, FIGS. 9-10) | survival rate ([1]; glufosinate at 25 mg/L) | survival rate ([1]; glufosinate at 50 mg/L) | survival rate ([1]; glufosinate at 150 mg/L) | survival rate ([1]; glufosinate at 200 mg/L) | injury when exposed to glufosinate [2] | kanamycin concentration effective at eliminating non-transgenic plants [3] | kanamycin concentration effective at eliminating non-transgenic plants [4]
CP(=O)(O)CCC(N)C(=O)O (stereo not drawn) [glufosinate] | varying degrees herbicide tolerance | little to no injury | 100% | 50% | 100% | 50% | significant injury and/or death |  | 
NC[C@H]1O[C@H](O[C@H]2[C@H](O)[C@@H](O[C@H]3O[C@H](CO)[C@@H](O)[C@H](N)[C@H]3O)[C@H](N)C[C@@H]2N)[C@H](O)[C@@H](O)[C@@H]1O [kanamycin] |  |  |  |  |  |  |  | 20 mg/L | 10 mg/L
